According to publication PMC12146746 (Proceedings of the National Academy of Sciences of the …, 2025):

Target: ceDCR-1/DRH-1/RDE-4 (Caenorhabditis elegans, UniProt G5EDI8)
Conditions: 5 mM ATP, BLT 42-bp dsRNA with deoxynucleotides

Sequence of ceDCR-1/DRH-1/RDE-4 (G5EDI8 1-1037): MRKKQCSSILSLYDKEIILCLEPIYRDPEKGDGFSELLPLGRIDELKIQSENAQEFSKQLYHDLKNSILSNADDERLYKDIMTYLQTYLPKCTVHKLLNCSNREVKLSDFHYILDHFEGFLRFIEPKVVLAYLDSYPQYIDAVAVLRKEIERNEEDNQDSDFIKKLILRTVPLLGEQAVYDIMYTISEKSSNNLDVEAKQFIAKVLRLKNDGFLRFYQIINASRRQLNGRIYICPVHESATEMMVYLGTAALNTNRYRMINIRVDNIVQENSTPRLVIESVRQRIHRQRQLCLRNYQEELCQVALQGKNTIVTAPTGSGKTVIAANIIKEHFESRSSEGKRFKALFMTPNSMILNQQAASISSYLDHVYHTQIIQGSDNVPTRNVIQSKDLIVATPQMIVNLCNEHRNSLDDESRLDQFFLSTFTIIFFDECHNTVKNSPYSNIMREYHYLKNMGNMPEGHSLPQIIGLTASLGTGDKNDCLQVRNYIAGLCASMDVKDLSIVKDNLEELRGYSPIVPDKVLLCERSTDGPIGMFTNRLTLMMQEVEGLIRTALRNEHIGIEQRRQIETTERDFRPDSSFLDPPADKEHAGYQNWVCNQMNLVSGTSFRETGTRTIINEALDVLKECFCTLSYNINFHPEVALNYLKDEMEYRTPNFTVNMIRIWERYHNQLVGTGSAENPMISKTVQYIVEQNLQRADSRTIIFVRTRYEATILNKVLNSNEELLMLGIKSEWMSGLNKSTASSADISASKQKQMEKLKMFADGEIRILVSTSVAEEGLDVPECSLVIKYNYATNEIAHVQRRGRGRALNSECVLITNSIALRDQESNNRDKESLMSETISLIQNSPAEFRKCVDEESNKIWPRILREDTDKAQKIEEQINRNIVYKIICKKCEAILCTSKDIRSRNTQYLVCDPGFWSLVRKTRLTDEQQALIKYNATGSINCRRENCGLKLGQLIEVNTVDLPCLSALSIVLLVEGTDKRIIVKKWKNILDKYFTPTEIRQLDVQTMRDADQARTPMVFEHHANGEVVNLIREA
Sequence of ceDCR-1/DRH-1/RDE-4 (P34529 whole entry partner): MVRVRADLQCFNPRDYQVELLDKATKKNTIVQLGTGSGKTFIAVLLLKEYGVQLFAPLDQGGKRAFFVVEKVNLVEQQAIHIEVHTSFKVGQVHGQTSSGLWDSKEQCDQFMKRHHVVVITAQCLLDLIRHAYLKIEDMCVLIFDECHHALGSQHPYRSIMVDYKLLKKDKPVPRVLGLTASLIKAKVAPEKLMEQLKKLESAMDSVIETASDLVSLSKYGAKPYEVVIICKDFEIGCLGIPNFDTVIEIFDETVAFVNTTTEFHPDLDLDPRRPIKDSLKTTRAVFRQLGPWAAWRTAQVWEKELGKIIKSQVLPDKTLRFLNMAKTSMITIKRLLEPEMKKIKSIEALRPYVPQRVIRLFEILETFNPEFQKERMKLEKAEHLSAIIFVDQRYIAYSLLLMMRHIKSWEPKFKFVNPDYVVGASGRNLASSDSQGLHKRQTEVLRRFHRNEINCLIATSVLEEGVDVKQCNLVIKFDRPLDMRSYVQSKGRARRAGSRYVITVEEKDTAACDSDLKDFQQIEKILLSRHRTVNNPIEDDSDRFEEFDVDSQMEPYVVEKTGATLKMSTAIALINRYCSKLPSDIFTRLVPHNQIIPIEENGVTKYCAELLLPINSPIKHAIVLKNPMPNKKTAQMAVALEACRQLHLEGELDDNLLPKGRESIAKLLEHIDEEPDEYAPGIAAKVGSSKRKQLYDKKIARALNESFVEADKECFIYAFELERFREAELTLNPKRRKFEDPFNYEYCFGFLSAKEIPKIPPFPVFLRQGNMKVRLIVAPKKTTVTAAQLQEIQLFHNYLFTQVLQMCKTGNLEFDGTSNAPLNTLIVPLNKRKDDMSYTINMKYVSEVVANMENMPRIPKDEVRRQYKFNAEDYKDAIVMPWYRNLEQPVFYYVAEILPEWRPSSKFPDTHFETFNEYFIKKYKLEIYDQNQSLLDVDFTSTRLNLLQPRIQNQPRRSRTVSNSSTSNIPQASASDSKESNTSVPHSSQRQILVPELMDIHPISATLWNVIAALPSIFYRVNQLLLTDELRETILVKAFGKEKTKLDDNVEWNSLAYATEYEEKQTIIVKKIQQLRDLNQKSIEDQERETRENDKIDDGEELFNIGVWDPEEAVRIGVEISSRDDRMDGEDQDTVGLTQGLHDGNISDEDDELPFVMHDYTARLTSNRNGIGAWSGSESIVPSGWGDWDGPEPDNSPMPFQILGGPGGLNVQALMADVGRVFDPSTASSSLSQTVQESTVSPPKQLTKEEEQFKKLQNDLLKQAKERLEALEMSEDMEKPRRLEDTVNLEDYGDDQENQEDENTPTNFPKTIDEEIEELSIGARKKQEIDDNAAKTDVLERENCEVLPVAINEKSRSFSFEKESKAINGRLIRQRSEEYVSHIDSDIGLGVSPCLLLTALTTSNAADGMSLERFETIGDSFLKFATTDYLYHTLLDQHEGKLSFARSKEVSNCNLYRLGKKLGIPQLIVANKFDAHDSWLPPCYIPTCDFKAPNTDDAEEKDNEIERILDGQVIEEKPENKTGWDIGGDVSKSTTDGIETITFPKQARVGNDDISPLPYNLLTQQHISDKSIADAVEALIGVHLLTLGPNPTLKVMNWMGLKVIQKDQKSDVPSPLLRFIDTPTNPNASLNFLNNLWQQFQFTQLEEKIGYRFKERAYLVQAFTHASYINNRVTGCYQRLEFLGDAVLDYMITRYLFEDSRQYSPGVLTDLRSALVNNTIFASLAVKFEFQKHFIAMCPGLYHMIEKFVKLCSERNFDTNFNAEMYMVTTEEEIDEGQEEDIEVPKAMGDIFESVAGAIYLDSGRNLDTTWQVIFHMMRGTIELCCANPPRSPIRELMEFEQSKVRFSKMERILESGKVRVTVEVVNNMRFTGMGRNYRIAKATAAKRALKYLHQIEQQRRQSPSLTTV
Sequence of ceDCR-1/DRH-1/RDE-4 (G5EBF5 1-385 partner): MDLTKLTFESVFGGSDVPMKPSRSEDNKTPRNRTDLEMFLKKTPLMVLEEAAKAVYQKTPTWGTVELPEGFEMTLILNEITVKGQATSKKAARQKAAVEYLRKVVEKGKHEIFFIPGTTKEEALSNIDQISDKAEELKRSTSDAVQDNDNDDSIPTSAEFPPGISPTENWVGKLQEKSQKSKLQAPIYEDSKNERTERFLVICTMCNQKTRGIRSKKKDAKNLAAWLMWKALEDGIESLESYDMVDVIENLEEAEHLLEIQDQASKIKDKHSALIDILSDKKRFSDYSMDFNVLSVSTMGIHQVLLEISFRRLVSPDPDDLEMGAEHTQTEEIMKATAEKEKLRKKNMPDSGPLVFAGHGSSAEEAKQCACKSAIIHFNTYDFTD

Structure (SMILES): Nc1ncnc2c1ncn2[C@@H]1O[C@H](COP(=O)(O)OP(=O)(O)OP(=O)(O)O)[C@@H](O)[C@H]1O [ATP]
- streptavidin-displacement (ATP-dependent translocation): Wildtype C. elegans antiviral complex showed ATP-dependent streptavidin displacement on this substrate
